pIC50: −log10 of the molar value.
Columns and labels:
Format in all cases: cell-based
[1] = system: rat A10 arterial smooth muscle cells; assay: Inhibition of smooth muscle cell proliferation, A10 cells; details: 144 h, A10 cell line, incubated six days, Coulter cell count normalized to DMSO-treated controls, read-out: IC50 (concentration of test compound producing a 50% inhibition of cell proliferation)
Description: (§1) The effects of the compounds of the present invention were studied in human pulmonary artery smooth muscle cells (PASMC), human coronary artery smooth muscle cells (CASMC), and rat A10 arterial smooth muscle cells growing under standard tissue culture conditions. CASMC and PASMC cell cultures were purchased from Clonetics (San Diego, Calif.). A10 smooth muscle cells were purchased from the American Type Culture Collection (Bethesda, Md.). Cells were inoculated at an initial cell density of 50,000 cells per well in six-well plastic cluster tissue culture dishes in 3.0 ml of complete growth medium. Test compounds were dissolved in dimethysulfoxide (DMSO) and added in a 3 μl volume to each well to produce the desired concentrations of said test compound (5, 10, 50, 100 and 500 nM final concentrations). Cells were incubated for six days. On day 4, fresh medium plus a fresh solution containing the test compound were added to the cell cultures. On day 6, the growth medium was removed by aspiration. The cells were detached by trypsinizing in 1.0 ml of trypsin-EDTA solution. The cell suspensions were transferred to 20 ml of an isotonic diluent and 0.5 ml of the diluted cell suspension was counted with a Coulter particle counter. Cell counts from test compound-treated cultures were normalized to cell counts obtained from DMSO-treated controls and expressed as percent inhibition. […]

[2] = system: human pulmonary artery smooth muscle cells (PASMC); assay: Inhibition of smooth muscle cell proliferation, PASMC; details: 144 h, PASMC cell line, incubated six days, Coulter cell count normalized to DMSO-treated controls, read-out: IC50 (concentration of test compound producing a 50% inhibition of cell proliferation)
Description: as §1

[3] = system: human coronary artery smooth muscle cells (CASMC); assay: Inhibition of smooth muscle cell proliferation, CASMC; details: 144 h, CASMC cell line, incubated six days, Coulter cell count normalized to DMSO-treated controls, read-out: IC50 (concentration of test compound producing a 50% inhibition of cell proliferation)
Description: as §1

Cn1cncc1C(N)(c1ccc(Cl)cc1)c1ccc2c(c1)c(-c1cccc(Cl)c1)cc(=O)n2C (single isomer, unassigned; (+)) [Co. No. 75, (+)-6-[amino(4-chloro-phenyl)(1-methyl-1H-imidazol-5-yl)methyl]-4-(3-chlorophenyl)-1-methyl-2(1H)-quinolinone]
pIC50 [1]: 7.85
pIC50 [2]: 7.62
pIC50 [3]: 7.80

Source: patent US6734194B2, “Method of use of (imidazol-5-yl)methyl-2-quinolinone derivatives to inhibit smooth muscle cell proliferation” (Janssen Pharmaceutica N.V., priority 1997, dated 2004)
